Assay results as given in patent US9765026B2, “Forms of apremilast and the process of making the same” (ScinoPharm Taiwan, Ltd., priority 2015, dated 2017).

How the values were obtained:
[1] = Dynamic Vapor Sorption (DVS) analysis of moisture uptake and release; format: physicochemical; conditions: for hygroscopicity (conclusion from DVS): cycling between 0% and 90% RH
Description: Dynamic Vapor Sorption (DVS)
The sample was placed into the DVS sample pan and dried under a stream of dry nitrogen at 25° C. (0% RH). The moisture was gradually introduced into the system with a 10% RH increment up to 90% RH and the humidity was then decreased in a similar trend for desorption phase. The sorption and desorption data were collected with equilibration set to dm/dt 0.004%/min for 5 min/step. The minimum and maximum time for each step were set to 10 and 360 min. Two sorption/desorption cycles were performed.

[2] = Stability at 40° C./75% RH; format: physicochemical; conditions: 40° C./75% RH for 4 weeks
Description: In comparison with the form F disclosed in U.S. Pat. No. 8,093,293, Form 3 and Form 4 in the present disclosure needs less process time to be prepared and is stable even at 40° C./75% RH for 4 weeks.

SMILES | water content ([1]; RH 90% (FIG. 5B)) [%] | hygroscopicity (conclusion from DVS) [1] | weight gained ([1]; at 10% RH (FIG. 12)) | change in sample weight ([1]; humidity increased from 10% to 90% RH (FIG. 12)) | stability on storage [2] | maximum moisture uptake ([1]; cycling between 0% and 90% RH (FIG. 15))
CCOc1cc([C@@H](CS(C)(=O)=O)N2C(=O)c3cccc(NC(C)=O)c3C2=O)ccc1OC [Form II, apremilast] | 4.5 | hygroscopic | – | – | – | –
CCOc1cc([C@@H](CS(C)(=O)=O)N2C(=O)c3cccc(NC(C)=O)c3C2=O)ccc1OC [Form 4, apremilast] | – | non-hygroscopic | about 3.3% | no significant change | stable | –
CCOc1cc([C@@H](CS(C)(=O)=O)N2C(=O)c3cccc(NC(C)=O)c3C2=O)ccc1OC [amorphous apremilast, apremilast] | – | hygroscopic | – | – | – | about 2.5 % of the total mass of the sample
CCOc1cc([C@@H](CS(C)(=O)=O)N2C(=O)c3cccc(NC(C)=O)c3C2=O)ccc1OC [Form 3, apremilast] | – | – | – | – | stable | –
